Read-outs that look alike come from different tables or passages of the source.
Legend:
[1] = biological target: Neisseria gonorrhoeae FabI (Neisseria gonorrhoeae, UniProt A0ACH0F547); assay: Neisseria gonorrhoeae FabI inhibition assay (NADH consumption)
[2] = Mouse cassette PK and oral bioavailability determination; type: in vivo, Female BALB/c mice; conditions: female, BALB/c, mouse, plasma; iv 1 mg/kg, po 2 mg/kg, cassette dosing; read-out: Mouse F (%)
Experimental: Dose volumes were 5 ml/kg and 10 ml/kg for IV and oral administration, respectively. Compounds were co-formulated in a 10% DMSO (v/v) and 40% Captisol (w/v) in saline solution formulation (up to 3 compounds in a cassette). […] Tmax, Cmax, AUC, clearance, volume of distribution and oral bioavailability were estimated from the plasma concentrations using non-compartmental pharmacokinetic models. In particular, oral bioavailability (F %) was defined as F=(Doseiv*AUCpo)/(Dosepo*AUCiv)*100

[3] = Prediction of hepatic extraction ratio from liver microsome stability; type: in vitro ADME; conditions: human liver microsomes, Well-Stirred model
Neisseria gonorrhoeae = assay: MIC50 by CLSI agar dilution on a panel of N. gonorrhoeae clinical isolates; type: cell-based; conditions: Neisseria gonorrhoeae
Experimental: MIC50: MICs were determined in accordance with the appropriate Clinical and Laboratory Standards Institute (CLSI) methodology by the agar dilution susceptbility testing method in GC agar base.

[4] = agar dilution, GC agar base, minimum of 15 clinical isolates, read-out: MIC50

Neisseria gonorrhoeae FabI, sequence (A0ACH0F547 1-261): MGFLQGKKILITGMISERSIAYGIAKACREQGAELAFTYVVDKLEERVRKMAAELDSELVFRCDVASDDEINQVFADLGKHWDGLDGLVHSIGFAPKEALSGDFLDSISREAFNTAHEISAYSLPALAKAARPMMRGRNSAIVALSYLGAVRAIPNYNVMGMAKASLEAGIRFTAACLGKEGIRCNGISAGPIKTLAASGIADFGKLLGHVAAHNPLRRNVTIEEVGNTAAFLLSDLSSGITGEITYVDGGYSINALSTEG

Row | SMILES | IC50 [1] [nM] | bioavailability [2] [%] | Predict Human hep ER [3] | MIC50 (Neisseria gonorrhoeae; [4]) [µg/mL] | MIC50 (Neisseria gonorrhoeae) [µg/mL]
1 | COc1cccc(Oc2ccc(C3=C[C@H]4CN(C(=O)/C=C/c5cnc6c(c5)NCCC(=O)N6)C[C@H]4C3)cc2)c1 [Compound 129, 8-((E)-3-((3rS,6rR)-5-(4-(3-methoxyphenoxy)phenyl)-3,3r,4,6r-tetrahydrocyclopenta[c]pyrrol-2(1H)-yl)-3-oxoprop-1-en-1-yl)-1,2,3,5-tetrahydro-4H-pyrido[2,3-b][1,4]diazepin-4-one] | < 10 | 26 | 0.02 | < 1 | –
2 | COc1cccc(Oc2cccc3c(CN(C)C(=O)/C=C/c4cnc5c(c4)CCCC(=O)N5)c(C)sc23)c1 [Compound 194, (E)-N-((7-(3-methoxyphenoxy)-2-methylbenzo[b]thiophen-3-yl)methyl)-N-methyl-3-(8-oxo-6,7,8,9-tetrahydro-5H-pyrido[2,3-b]azepin-3-yl)acrylamide] | < 10 | 12 | – | < 1 | –
3 | O=C1CCNc2cc(/C=C/C(=O)N3C[C@H]4CC(c5ccc(Oc6cncs6)cc5)=C[C@H]4C3)cnc2N1 [Compound 96, 8-((E)-3-Oxo-3-((3aS,6aR)-5-(4-(thiazol-5-yloxy)phenyl)-3,3a,4,6a-tetrahydrocyclopenta[c]pyrrol-2(1H)-yl)prop-1-en-1-yl)-1,2,3,5-tetrahydro-4H-pyrido[2,3-b][1,4]diazepin-4-one] | < 10 | 16 | 0.2 | < 1 | –
4 | Cc1oc2c(N)cccc2c1CN(C)C(=O)/C=C/c1cnc2c(c1)N[C@H](C)[C@H](O)C(=O)N2 [Compound 290, (E)-N-((7-amino-2-methylbenzofuran-3-yl)methyl)-3-((2R,3S)-3-hydroxy-2-methyl-4-oxo-2,3,4,5-tetrahydro-1H-pyrido[2,3-b][1,4]diazepin-8-yl)-N-methylacrylamide] | < 10 | – | 0.1 | < 1 | –
5 | Cc1oc2c(N)cccc2c1CN(C)C(=O)/C=C/c1cnc2c(c1)NC[C@H](O)C(=O)N2 [Compound 276, (S,E)-N-((7-amino-2-methylbenzofuran-3-yl)methyl)-3-(3-hydroxy-4-oxo-2,3,4,5-tetrahydro-1H-pyrido[2,3-b][1,4]diazepin-8-yl)-N-methylacrylamide] | < 10 | 43 | – | < 1 | –
6 | COc1cc(Oc2ccc(C3=C[C@H]4CN(C(=O)/C=C/c5cnc6c(c5)NCCC(=O)N6)C[C@H]4C3)cc2)ccc1C#N [Compound 140, 2-methoxy-4-(4-((3rS,6rR)-2-((E)-3-(4-oxo-2,3,4,5-tetrahydro-1H-pyrido[2,3-b][1,4]diazepin-8-yl)acryloyl)-1,2,3,3r,4,6r-hexahydrocyclopenta[c]pyrrol-5-yl)phenoxy)benzonitrile] | < 10 | 13 | 0.13 | < 1 | –
7 | Cc1oc2c(Oc3ccc4c(c3)OCO4)cccc2c1CN(C)C(=O)/C=C/c1cnc2c(c1)NCCC(=O)N2 [Compound 119, (E)-N-((7-(Benzo[d][1,3]dioxol-5-yloxy)-2-methylbenzofuran-3-yl)methyl)-N-methyl-3-(4-oxo-2,3,4,5-tetrahydro-1H-pyrido[2,3-b][1,4]diazepin-8-yl)acrylamide] | < 10 | – | 0.08 | < 1 | –
8 | Cc1oc2c(Oc3ccc(C#N)cc3)cccc2c1CN(C)C(=O)/C=C/c1cnc2c(c1)NCCC(=O)N2 [Compound 80, (E)-N-((7-(4-cyanophenoxy)-2-methylbenzofuran-3-yl)methyl)-N-methyl-3-(4-oxo-2,3,4,5-tetrahydro-1H-pyrido[2,3-b][1,4]diazepin-8-yl)acrylamide] | < 10 | 35 | 0.25 | – | < 1
9 | Cc1oc2c(Oc3ccc(C#N)cc3)cccc2c1CN(C)C(=O)/C=C/c1cnc2c(c1)NC[C@@](C)(O)C(=O)N2 [Compound 152, (R,E)-N-((7-(4-cyanophenoxy)-2-methylbenzofuran-3-yl)methyl)-3-(3-hydroxy-3-methyl-4-oxo-2,3,4,5-tetrahydro-1H-pyrido[2,3-b][1,4]diazepin-8-yl)-N-methylacrylamide] | < 10 | – | – | – | < 1
10 | COc1cccc(Oc2cccc3c(CN(C)C(=O)/C=C/c4cnc5c(c4)NC[C@@](C)(O)C(=O)N5)c(C)oc23)c1 [Compound 183, (R,E)-3-(3-hydroxy-3-methyl-4-oxo-2,3,4,5-tetrahydro-1H-pyrido[2,3-b][1,4]diazepin-8-yl)-N-((7-(3-methoxyphenoxy)-2-methylbenzofuran-3-yl)methyl)-N-methylacrylamide] | < 10 | 16 | – | < 1 | –
11 | Cc1c(CN(C)C(=O)/C=C/c2cnc3c(c2)NC[C@](C)(CO)C(=O)N3)oc2ccccc12 [Compound 33, (R,E)-3-(3-(hydroxymethyl)-3-methyl-4-oxo-2,3,4,5-tetrahydro-1H-pyrido[2,3-b][1,4]diazepin-8-yl)-N-methyl-N-((3-methylbenzofuran-2-yl)methyl)acrylamide] | < 10 | – | – | < 1 | –
12 | Cc1oc2c(N)cccc2c1CN(C)C(=O)/C=C/c1cnc2c(c1)NCC(C)(C)C(=O)N2 [Compound 109, (E)-N-((7-Amino-2-methylbenzofuran-3-yl)methyl)-3-(3,3-dimethyl-4-oxo-2,3,4,5-tetrahydro-1H-pyrido[2,3-b][1,4]diazepin-8-yl)-N-methylacrylamide] | < 10 | – | – | < 1 | –
13 | Cc1c(CN(C)C(=O)/C=C/c2cnc3c(c2)NC[C@@](C)(O)C(=O)N3)oc2cccc(N)c12 [Compound 143, (R,E)-N-((4-amino-3-methylbenzofuran-2-yl)methyl)-3-(3-hydroxy-3-methyl-4-oxo-2,3,4,5-tetrahydro-1H-pyrido[2,3-b][1,4]diazepin-8-yl)-N-methylacrylamide] | < 10 | – | – | < 1 | –
14 | N#Cc1cccc(Oc2ccc(C3=C[C@H]4CN(C(=O)/C=C/c5cnc6c(c5)NCCC(=O)N6)C[C@H]4C3)cc2)c1 [Compound 123, 3-(4-((3rS,6rR)-2-((E)-3-(4-Oxo-2,3,4,5-tetrahydro-1H-pyrido[2,3-b][1,4]diazepin-8-yl)acryloyl)-1,2,3,3r,4,6r-hexahydrocyclopenta[c]pyrrol-5-yl)phenoxy)benzonitrile] | < 10 | – | – | < 1 | –
15 | Cc1oc2c(Oc3cncs3)cccc2c1CN(C)C(=O)/C=C/c1cnc2c(c1)NCCC(=O)N2 [Compound 101, (E)-N-Methyl-N-((2-methyl-7-(thiazol-5-yloxy)benzofuran-3-yl)methyl)-3-(4-oxo-2,3,4,5-tetrahydro-1H-pyrido[2,3-b][1,4]diazepin-8-yl)acrylamide] | < 10 | – | – | < 1 | –
16 | Cc1c(CN(C)C(=O)/C=C/c2cnc3c(c2)NCC(=O)N3)oc2ccccc12 [Compound 10, (E)-N-methyl-N-((3-methylbenzofuran-2-yl)methyl)-3-(3-oxo-1,2,3,4-tetrahydropyrido[2,3-b]pyrazin-7-yl)acrylamide] | < 10 | – | – | < 1 | –
17 | Cc1c(CN(C)C(=O)/C=C/c2cnc3c(c2)CCCC(=O)N3)oc2cccc(N)c12 [Compound 5, (E)-N-((4-amino-3-methylbenzofuran-2-yl)methyl)-N-methyl-3-(8-oxo-6,7,8,9-tetrahydro-5H-pyrido[2,3-b]azepin-3-yl)acrylamide] | < 10 | – | – | < 1 | –
18 | Cc1oc2ccccc2c1CN(C)C(=O)/C=C/c1cnc2c(c1)NC1(CCOCC1)C(=O)N2 [Compound 64, (E)-N-Methyl-N-((2-methylbenzofuran-3-yl)methyl)-3-(3′-oxo-2,3,3′,4′,5,6-hexahydro-1′H-spiro[pyran-4,2′-pyrido[2,3-b]pyrazin]-7′-yl)acrylamide] | < 10 | – | – | < 1 | –
19 | Cc1oc2c(N)cccc2c1CN(C)C(=O)/C=C/c1cnc2c(c1)NC(C)(C)C(=O)N2 [Compound 287, (E)-N-((7-amino-2-methylbenzofuran-3-yl)methyl)-3-(2,2-dimethyl-3-oxo-1,2,3,4-tetrahydropyrido[2,3-b]pyrazin-7-yl)-N-methylacrylamide] | < 10 | – | 0.34 | < 1 | –
20 | N#Cc1ccc(Oc2ccc(C3=C[C@@H]4CN(C(=O)/C=C/c5cnc6c(c5)NCCC(=O)N6)C[C@@H]4C3)cc2)cc1 (stereo in doubt) [Compound 198, 4-(4-((3aR,6aS)-2-((E)-3-(4-oxo-2,3,4,5-tetrahydro-1H-pyrido[2,3-b][1,4]diazepin-8-yl)acryloyl)-1,2,3,3a,4,6a-hexahydrocyclopenta[c]pyrrol-5-yl)phenoxy)benzonitrile] | < 10 | – | – | < 1 | –
21 | Cc1c(CN(C)C(=O)/C=C/c2cnc3c(c2)NCC(CO)C(=O)N3)oc2ccccc12 (stereo not shown) [Compound 270, (E)-3-(3-(hydroxymethyl)-4-oxo-2,3,4,5-tetrahydro-1H-pyrido[2,3-b][1,4]diazepin-8-yl)-N-methyl-N-((3-methylbenzofuran-2-yl)methyl)acrylamide] | < 10 | – | – | < 1 | –
22 | Cc1oc2c(N)cccc2c1CN(C)C(=O)/C=C/c1cnc2c(c1)NCCC(=O)N2 [Compound 75, (E)-N-((7-Amino-2-methylbenzofuran-3-yl)methyl)-N-methyl-3-(4-oxo-2,3,4,5-tetrahydro-1H-pyrido[2,3-b][1,4]diazepin-8-yl)acrylamide] | < 10 | – | – | < 1 | –

Reference: patent US12545672B2, “Antibiotic compounds, methods of manufacturing the same, pharmaceutical compositions containing the same and uses thereof” (Debiopharm International S.A., priority 2018, dated 2026)
